# Reference: patent publication US11377425B1, “Small molecule modulators of IL-17” (LEO Pharma A/S, priority 2018, dated 2022)
# Target: T1, human IL-17AA (Homo sapiens, UniProt Q16552)
# T1 construct: host or cells: HEK (human embryonic kidney) cells
# T1 sequence (Q16552 24-155): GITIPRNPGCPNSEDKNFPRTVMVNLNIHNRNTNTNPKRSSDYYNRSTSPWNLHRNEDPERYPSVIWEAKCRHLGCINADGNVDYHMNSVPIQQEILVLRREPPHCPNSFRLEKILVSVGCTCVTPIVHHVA
# Assay: IL-8 release assay in human epithelial keratinocytes adult (HEKa)
# Assay type: cell-based
# Settings: HEKa cells, 3 ng/mL HEK-human IL-17AA + 10 ng/mL human TNFalpha; read-out: Rel EC50 IL-8 release assay
# Method in brief: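 IL-8 release, quantified by HTRF and normalized to controls, reports IL-17 signaling in HEKa cells treated with compound plus final 3 ng/mL IL-17AA (HEK-derived) and 10 ng/mL TNF-alpha for 68-72 h; TNF-alpha-only wells set 100% inhibition. Four-parameter logistic fits (r^2>0.9) give relative IC50 and Emax; PrestoBlue flags cytotoxicity.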
row,Compound,EC50 [nM]
1,"Cc1n[nH]c(CO)c1-c1ccc(NC(=O)[C@@H](NC(=O)c2ccnn2C(C)C)C(C2CC2)C2CC2)cc1 [Example 432, N-[(1S)-1-(Dicyclopropylmethyl)-2-[4-[5-(hydroxymethyl)-3-methyl-1H-pyrazol-4-yl]anilino]-2-oxo-ethyl]-2-isopropyl-pyrazole-3-carboxamide]",< 100
2,"Cc1n[nH]c(C(C)O)c1-c1ccc(NC(=O)[C@@H](NC(=O)OC(C)(C)C)C2CCCCC2)cc1 (stereo partly drawn) [Example 433, Tert-butyl N-[(1S)-1-cyclohexyl-2-[4-[5-(1-hydroxyethyl)-3-methyl-1H-pyrazol-4-yl]anilino]-2-oxo-ethyl]carbamate]",> 1000
3,"Cc1[nH]nc(C(C)O)c1-c1ccc(NC(=O)[C@@H](NC(=O)OC(C)(C)C)C(c2ccccc2)c2ccccc2)cc1 (stereo partly drawn) [Example 434, tert-butyl N-[(1S)-1-benzhydryl-2-[4-[5-(1-hydroxyethyl)-3-methyl-1H-pyrazol-4-yl]anilino]-2-oxo-ethyl]carbamate]",100 to 1000
4,"Cc1n[nH]c(C(C)(C)O)c1-c1ccc(NC(=O)[C@@H](NC(=O)c2ccnn2C)C(c2ccccc2)c2ccccc2)cc1 [Example 435, N-[(1S)-1-benzhydryl-2-[4-[5-(1-hydroxy-1-methyl-ethyl)-3-methyl-1H-pyrazol-4-yl]anilino]-2-oxo-ethyl]-2-methyl-pyrazole-3-carboxamide]",100 to 1000
5,"Cc1[nH]nc(C(C)(C)O)c1-c1ccc(NC(=O)[C@@H](NC(=O)OC(C)(C)C)C2CCCCC2)cc1 [Example 436, tert-butyl N-[(1S)-1-cyclohexyl-2-[4-[5-(1-hydroxy-1-methyl-ethyl)-3-methyl-1H-pyrazol-4-yl]anilino]-2-oxo-ethyl]carbamate]",> 1000
6,"Cc1[nH]nc(CO)c1-c1ccc(NC(=O)[C@@H](NC(=O)OC(C)(C)C)C(c2ccccc2)c2ccccc2)cc1 [Example 437, tert-butyl N-[(1S)-1-benzhydryl-2-[4-[5-(hydroxymethyl)-3-methyl-1H-pyrazol-4-yl]anilino]-2-oxo-ethyl]carbamate]",100 to 1000
7,"Cc1[nH]nc(CO)c1-c1ccc(NC(=O)[C@@H](NC(=O)OC(C)(C)C)C2CCCCC2)cc1 [Example 438, tert-butyl N-[(1S)-1-cyclohexyl-2-[4-[5-(hydroxymethyl)-3-methyl-1H-pyrazol-4-yl]anilino]-2-oxo-ethyl]carbamate]",100 to 1000
8,"Cc1[nH]nc(CO)c1-c1ccc(NC(=O)[C@@H](NC(=O)OC(C)(C)C)C2CCCCCC2)cc1 [Example 439, tert-butyl N-[(1S)-1-cycloheptyl-2-[4-[5-(hydroxymethyl)-3-methyl-1H-pyrazol-4-yl]anilino]-2-oxo-ethyl]carbamate]",100 to 1000
9,"Cc1n[nH]c(C(C)O)c1-c1ccc(NC(=O)[C@@H](NC(=O)c2ccnn2C)C2CCCCC2)cc1 (stereo partly drawn) [Example 440, N-[(1S)-1-Cyclohexyl-2-[4-[5-(1-hydroxyethyl)-3-methyl-1H-pyrazol-4-yl]anilino]-2-oxo-ethyl]-2-methyl-pyrazole-3-carboxamide]",100 to 1000
10,"Cc1n[nH]c(C(C)O)c1-c1ccc(NC(=O)[C@@H](NC(=O)C2(F)CC2)C2CCCCC2)cc1 (stereo partly drawn) [Example 441, N-[(1S)-1-cyclohexyl-2-[4-[5-(1-hydroxyethyl)-3-methyl-1H-pyrazol-4-yl]anilino]-2-oxo-ethyl]-1-fluoro-cyclopropanecarboxamide]",> 1000
11,"Cc1n[nH]c(C(C)O)c1-c1ccc(NC(=O)[C@@H](NC(=O)C2(F)CC2)C(c2ccccc2)c2ccccc2)cc1 (stereo partly drawn) [Example 442, N-[(1S)-1-benzhydryl-2-[4-[5-(1-hydroxyethyl)-3-methyl-1H-pyrazol-4-yl]anilino]-2-oxo-ethyl]-1-fluoro-cyclopropanecarboxamide]",100 to 1000
12,"Cc1n[nH]c(C(C)O)c1-c1ccc(NC(=O)[C@@H](NC(=O)c2ccnn2C)C(c2ccccc2)c2ccccc2)cc1 (stereo partly drawn) [Example 443, N-[(1S)-1-benzhydryl-2-[4-[5-(1-hydroxyethyl)-3-methyl-1H-pyrazol-4-yl]anilino]-2-oxo-ethyl]-2-methyl-pyrazole-3-carboxamide]",100 to 1000
13,"Cc1n[nH]c(CO)c1-c1ccc(NC(=O)[C@@H](NC(=O)c2ccnn2C)C2CCCCC2)cc1 [Example 445, N-[(1S)-1-cyclohexyl-2-[4-[5-(hydroxymethyl)-3-methyl-1H-pyrazol-4-yl]anilino]-2-oxo-ethyl]-2-methyl-pyrazole-3-carboxamide]",100 to 1000
14,"Cc1n[nH]c(CO)c1-c1ccc(NC(=O)[C@@H](NC(=O)c2ccnn2C)C2CCCCCC2)cc1 [Example 446, N-[(1S)-1-cycloheptyl-2-[4-[5-(hydroxymethyl)-3-methyl-1H-pyrazol-4-yl]anilino]-2-oxo-ethyl]-2-methyl-pyrazole-3-carboxamide]",< 100
15,"Cc1n[nH]c(CO)c1-c1ccc(NC(=O)[C@@H](NC(=O)c2ccnn2C)C(c2ccccc2)c2ccccc2)cc1 [Example 447, N-[(1S)-1-benzhydryl-2-[4-[5-(hydroxymethyl)-3-methyl-1H-pyrazol-4-yl]anilino]-2-oxo-ethyl]-2-methyl-pyrazole-3-carboxamide]",100 to 1000
16,"CC(C)n1nccc1C(=O)N[C@H](C(=O)Nc1ccc(-c2c(C(C)(C)O)ncn2C)cc1)C(C1CC1)C1CC1 [Example 448, N-[(1S)-1-(Dicyclopropylmethyl)-2-[4-[5-(1-hydroxy-1-methyl-ethyl)-3-methyl-imidazol-4-yl]anilino]-2-oxo-ethyl]-2-isopropyl-pyrazole-3-carboxamide]",100 to 1000
17,"Cc1n[nH]c(N)c1-c1ccc(NC(=O)[C@@H](NC(=O)c2ccnn2C)C2CCCCC2)cc1 [Example 449, N-[(1S)-2-[4-(3-Amino-5-methyl-1H-pyrazol-4-yl)anilino]-1-cyclohexyl-2-oxo-ethyl]-2-methyl-pyrazole-3-carboxamide]",100 to 1000
18,"Cc1n[nH]c(N)c1-c1ccc(NC(=O)[C@@H](NC(=O)c2ccnn2C)C2CCCCCC2)cc1 [Example 450, N-[(1S)-2-[4-(5-amino-3-methyl-1H-pyrazol-4-yl)anilino]-1-cycloheptyl-2-oxo-ethyl]-2-methyl-pyrazole-3-carboxamide]",100 to 1000
19,"Cc1n[nH]c(N)c1-c1ccc(NC(=O)[C@@H](NC(=O)c2ccnn2C)C(C2CCC2)C2CCC2)cc1 [Example 451, N-[(1S)-1-[[4-(3-amino-5-methyl-1H-pyrazol-4-yl)phenyl]carbamoyl]-2,2-di(cyclobutyl)ethyl]-2-methyl-pyrazole-3-carboxamide]",< 100
20,"CNc1[nH]nc(C)c1-c1ccc(NC(=O)[C@@H](NC(=O)c2ccnn2C)C2CCCCC2)cc1 [Example 452, N-[(1S)-1-cyclohexyl-2-[4-[5-methyl-3-(methylamino)-1H-pyrazol-4-yl]anilino]-2-oxo-ethyl]-2-methyl-pyrazole-3-carboxamide]",> 1000
21,"Cc1n[nH]c(N(C)C)c1-c1ccc(NC(=O)[C@@H](NC(=O)c2ccnn2C)C2CCCCC2)cc1 [Example 453, N-[(1S)-1-cyclohexyl-2-[4-[3-(dimethylamino)-5-methyl-1H-pyrazol-4-yl]anilino]-2-oxo-ethyl]-2-methyl-pyrazole-3-carboxamide]",100 to 1000
22,"Cc1n[nH]c(C)c1-c1ccc(NC(=O)[C@@H](NC(=O)N(C)CCCO)C2CCCCC2)cc1 [Example 459, (2S)-2-cyclohexyl-N-[4-(3,5-dimethyl-1H-pyrazol-4-yl)phenyl]-2-[[3-hydroxypropyl(methyl)carbamoyl]amino]acetamide]",> 1000
23,"CCN(CC)C(=O)N[C@H](C(=O)Nc1ccc(-c2c(C)n[nH]c2C)cc1)C1CCCCC1 [Example 462, (2S)-2-cyclohexyl-2-(diethylcarbamoylamino)-N-[4-(3,5-dimethyl-1H-pyrazol-4-yl)phenyl]acetamide]",> 1000
24,"Cc1n[nH]c(C)c1-c1ccc(NC(=O)[C@@H](NC(=O)N(C)CCO)C2CCCCC2)cc1 [Example 463, (2S)-2-cyclohexyl-N-[4-(3,5-dimethyl-1H-pyrazol-4-yl)phenyl]-2-[[2-hydroxyethyl(methyl)carbamoyl]amino]acetamide]",> 1000
25,"Cc1n[nH]c(C)c1-c1ccc(NC(=O)[C@@H](NC(=O)N2CCCC2CCCO)C2CCCCC2)cc1 (stereo partly drawn) [Example 468, N-[(1S)-1-cyclohexyl-2-[4-(3,5-dimethyl-1H-pyrazol-4-yl)anilino]-2-oxo-ethyl]-2-(3-hydroxypropyl)-pyrrolidine-1-carboxamide]",> 1000
26,"Cc1n[nH]c(C)c1-c1ccc(NC(=O)[C@@H](NC(=O)N(C)C(C)C)C2CCCCC2)cc1 [Example 469, (2S)-2-cyclohexyl-N-[4-(3,5-dimethyl-1H-pyrazol-4-yl)phenyl]-2-[[isopropyl(methyl)carbamoyl]amino]acetamide]",100 to 1000
27,"Cc1n[nH]c(C)c1-c1ccc(NC(=O)[C@@H](NC(=O)N2CCCCC2)C2CCCCC2)cc1 [Example 472, N-[(1S)-1-cyclohexyl-2-[4-(3,5-dimethyl-1H-pyrazol-4-yl)anilino]-2-oxo-ethyl]piperidine-1-carboxamide]",> 1000
28,"Cc1n[nH]c(C)c1-c1ccc(NC(=O)[C@@H](NC(=O)N2CCCC2C(C)C)C2CCCCC2)cc1 (stereo partly drawn) [Example 475, N-[(1S)-1-cyclohexyl-2-[4-(3,5-dimethyl-1H-pyrazol-4-yl)anilino]-2-oxo-ethyl]-2-isopropyl-pyrrolidine-1-carboxamide]",> 1000
29,"Cc1n[nH]c(C)c1-c1ccc(NC(=O)[C@@H](NC(=O)N(C)CCCCO)C2CCCCC2)cc1 [Example 476, (2S)-2-cyclohexyl-N-[4-(3,5-dimethyl-1H-pyrazol-4-yl)phenyl]-2-[[4-hydroxybutyl(methyl)carbamoyl]amino]acetamide]",100 to 1000
